Results reported in US20260137671A1, “PDK4 as a Cell-Aging Intervention Target and Its Use in Chemotherapy and Anticancer” (Shanghai Institute of Nutrition and Health, Chinese Academy …, priority 2022, published 2026).

Key:
[1] = tested on: mice implanted with recombinant tissues; experiment: Survival of tumor-bearing mice in time-extended preclinical cohort (bulky disease, size >2,000 mm^3); type: in vivo; conditions: PDK4-IN treatment alone versus vehicle
Text: FIG. 74. Curve of bulky DFS plotted against survival time of implantation with recombinant tissues in mice until animal death attributed to advanced bulky disease development. MS, median survival. P values calculated by two-sided log-rank (Mantel-Cox) tests.
Next, the inventors assessed tumor progression consequence by comparing the survival rate of different animal groups in a time-extended preclinical cohort. During tumor surveillance, bulky disease was considered once the tumor burden became prominent (size >2,000 mm^3).

[2] = tested on: senescent human stromal cells (PSC27); experiment: Seahorse XF24 metabolic profiling of senescent stromal cells; type: cell-based; set-up: ATP production / basal respiration / maximal respiration: dose or concentration left out as unconfirmed
Description: FIG. 26. OCR of stromal cells was measured using an XF24 Extracellular Flux Analyzer. In simple, 1.5 μM oligomycin, 0.5 μM FCCP and 0.5 μM Rot/Ant were injected sequentially in order into each well. The glycolysis rate was calculated as the difference between the maximum rate measured before injection and the last rate measured before glucose injection. All Seahorse data were normalized to cell numbers, with all metabolic parameters automatically calculated by WAVE software equipped in the Seahorse. OCR, oxygen consumption rate. Oligo, oligomycin. FCCP, carbonyl cyanide 4-(trifluoromethoxy) phenylhydrazone. Rot, rotenone. Ant, antimycin. […]
After 6 hours of drug treatment, the cells were simply washed 3 times with PBS, left in the culture medium for 7-˜10 days, and then the subsequent experiments were performed.
Next, the inventors measured the levels of extracellular fluids. […] Among them, HK2 and LDHA are glycolysis-related factors, whereas IDH2, IDH3, OGDH and CS are TCA cycle-involving enzymes. As overexpression of PDK4 per se in normal cells neither caused or abrogated senescence, nor affected the SASP (FIG. 38), the inventors reasoned that senescent cell metabolism was correlated with and likely underpinned by expression of key factors involved in glucose consumption and linked with production of pyruvate, lactate and multiple other metabolites.

[3] = tested on: tumor tissues of mice (PC3/PSC27 xenografts); experiment: In vivo cellular senescence and SASP expression in xenograft tumors (LCM transcripts, SA-β-Gal staining); set-up: species or system SCID mice
Text: (§1) FIG. 66. Transcript assessment of several canonical SASP factors expressed in stromal cells isolated from tumors in SCID mice. LCM isolation, total RNA preparation and expression assays on tissues from animals with simultaneously implanted stromal cells and cancer cells. Note that the group measured as of the lowest value was used as normalization baseline per factor.
as §1, with “67.” for “66.”, “individual” for “several”, “factors (AREG), aging markers (p16/p21) and PDK4” for “factors”
FIG. 68. Representative IHC images of SA-β-Gal staining chromatograms from tissues isolated from animals subjected to placebo or drug treatments. Scale bar, 100 μm. Right, Comparative statistical analysis of SA-β-Gal staining for tissues in mice mentioned above.
Senescence-associated β-galactosidase (SA-β-Gal) staining was performed following a previously reported procedure (Debacq-Chainiaux et al., 2009). Briefly, cells in culture dishes were washed with PBS and fixed at room temperature. Cells were fixed in 2% formaldehyde and 0.2% glutaraldehyde for 3 minutes. SA-β-Gal was used for staining with freshly prepared staining solution overnight at 37° C. Images were taken on the next day and the percentage of positive cells per unit area was calculated.
For pre-clinical chemotherapeutic studies, mice received subcutaneous implantation were given standard laboratory diets. […] The time points were on the first day of the third, fifth and seventh weeks, with a total of 3 cycles of treatment, and each cycle lasted for 2 weeks. After the course of treatment, mouse […] were collected for tumor measurement and histological analysis. […]

[4] = senescence-associated change, PDK4-IN treated

O=C1c2ccccc2C(=O)c2c1cccc2-c1cnn(C2CCNCC2)c1 [PDK4-IN]
survival benefit as single agent [1]: only marginal survival advantage | H^+ (proton) leak [2, 4]: reversed changes | lactate production [2, 4]: reversed changes | non-mitochondrial oxygen consumption [2, 4]: reversed changes | pH fluctuation [2, 4]: reversed changes | ATP production ([2]; senescent cells, PDK4-IN-1): further promoted | basal respiration ([2]; senescent cells, PDK4-IN-1): further promoted | maximal respiration ([2]; senescent cells, PDK4-IN-1): further promoted | SA-β-gal positivity in tumor tissues ([3]; histological staining, FIG. 68): neither induced senescence nor inhibited senescence | cellular senescence / SASP factor and senescence marker expression in vivo ([3]; single agent or in combination with MIT, FIGS. 66-67): neither induced nor affected cellular senescence
